In the data set the test system is CCRIS mutagenicity, Ames/micronucleus/aberration tests. Kind of data set: CCRIS mutagenicity studies.
[1] abbreviates: Test System: AMES SALMONELLA TYPHIMURIUM, Strain/Indicator: TA98, Metabolic Activation: NONE, Method: PREINCUBATION
Where [2] appears, read: Test System: AMES SALMONELLA TYPHIMURIUM, Strain/Indicator: TA100, Metabolic Activation: NONE, Method: PREINCUBATION
Setting [3] is: Test System: AMES SALMONELLA TYPHIMURIUM, Strain/Indicator: TA102, Metabolic Activation: NONE, Method: STANDARD PLATE.

Data on 3 compounds can be found in PubChem BioAssay AID1259407 (Chemical Carcinogenesis Research Information System (CCRIS), 2018).

The source made the active and inactive calls. How the calls were made is not given here.

Consider `O=[N+]([O-])c1ccc2c(c1)oc1ccc([N+](=O)[O-])cc12`, for which the mutagenic call is “active; positive” (Test System: AMES SALMONELLA TYPHIMURIUM, Strain/Indicator: TA98(1,8-DNP6), Metabolic Activation: NONE, Method: PREINCUBATION); “active; positive” (Test System: AMES SALMONELLA TYPHIMURIUM, Strain/Indicator: TA98(1,8-DNP6), Metabolic Activation: NONE, Method: SUSPENSION); “active; positive” (Test System: AMES SALMONELLA TYPHIMURIUM, Strain/Indicator: TA98(1,8-DNP6), Metabolic Activation: RAT, LIVER, S-9, PCB (5%), Method: PREINCUBATION); “inactive; negative” (Test System: AMES SALMONELLA TYPHIMURIUM, Strain/Indicator: TA98(NR), Metabolic Activation: NONE, Method: PREINCUBATION); “inactive; negative” (Test System: AMES SALMONELLA TYPHIMURIUM, Strain/Indicator: TA98(NR), Metabolic Activation: NONE, Method: SUSPENSION); “active; positive” (Test System: AMES SALMONELLA TYPHIMURIUM, Strain/Indicator: TA98(NR), Metabolic Activation: RAT, LIVER, S-9 (10%), Method: PREINCUBATION). Also, the mutagenic call was “active; positive” (Test System: AMES SALMONELLA TYPHIMURIUM, Strain/Indicator: TA98(NR), Metabolic Activation: RAT, LIVER, S-9, 3-METHYLCHOLANTHRENE (10%), Method: PREINCUBATION); “active; positive” (Test System: AMES SALMONELLA TYPHIMURIUM, Strain/Indicator: TA98(NR), Metabolic Activation: RAT, LIVER, S-9, BETA-NAPHTHOFLAVONE (10%), Method: PREINCUBATION); “active; positive” (Test System: AMES SALMONELLA TYPHIMURIUM, Strain/Indicator: TA98(NR), Metabolic Activation: RAT, LIVER, S-9, PCB (5 OR 10%), Method: PREINCUBATION); “active; positive” (Test System: AMES SALMONELLA TYPHIMURIUM, Strain/Indicator: TA98(NR), Metabolic Activation: RAT, LIVER, S-9, PHENOBARBITAL (10%), Method: PREINCUBATION); “active; positive” under setting [1]; “active; positive” (Test System: AMES SALMONELLA TYPHIMURIUM, Strain/Indicator: TA98, Metabolic Activation: NONE, Method: SUSPENSION). Further, the mutagenic call was “active; positive” (Test System: AMES SALMONELLA TYPHIMURIUM, Strain/Indicator: TA98, Metabolic Activation: RAT, LIVER, S-9, PCB (5%), Method: PREINCUBATION); “active; positive” (Test System: AMES SALMONELLA TYPHIMURIUM, Strain/Indicator: TA98, Metabolic Activation: RAT, LIVER, S-9, PCB, Method: SUSPENSION); “inactive; negative” under setting [2]; “inactive; negative” (Test System: AMES SALMONELLA TYPHIMURIUM, Strain/Indicator: TA100, Metabolic Activation: NONE, Method: SUSPENSION); “inactive; negative” (Test System: AMES SALMONELLA TYPHIMURIUM, Strain/Indicator: TA100, Metabolic Activation: RAT, LIVER, S-9, PCB (5%), Method: PREINCUBATION); “active; positive” (Test System: AMES SALMONELLA TYPHIMURIUM, Strain/Indicator: TA100, Metabolic Activation: RAT, LIVER, S-9, PCB, Method: SUSPENSION).
On to `CC1OC(OC2CC(O)(CO)Cc3c(O)c4c(c(O)c32)C(=O)c2ccccc2C4=O)C(I)C(O)C1O` (centres undefined), for which the mutagenic call (Test System: AMES SALMONELLA TYPHIMURIUM, Strain/Indicator: TA97A, Metabolic Activation: NONE, Method: STANDARD PLATE) was “inactive; negative”; the mutagenic call (Test System: AMES SALMONELLA TYPHIMURIUM, Strain/Indicator: TA97A, Metabolic Activation: RAT, LIVER, S-9, AROCLOR 1254, Method: STANDARD PLATE) was “inactive; negative”; the mutagenic call (Test System: AMES SALMONELLA TYPHIMURIUM, Strain/Indicator: TA98, Metabolic Activation: NONE, Method: STANDARD PLATE) was “inactive; negative”; the mutagenic call (Test System: AMES SALMONELLA TYPHIMURIUM, Strain/Indicator: TA98, Metabolic Activation: RAT, LIVER, S-9, AROCLOR 1254, Method: STANDARD PLATE) was “inactive; negative”; the mutagenic call (Test System: AMES SALMONELLA TYPHIMURIUM, Strain/Indicator: TA100, Metabolic Activation: NONE, Method: STANDARD PLATE) was “inactive; negative”; the mutagenic call (Test System: AMES SALMONELLA TYPHIMURIUM, Strain/Indicator: TA100, Metabolic Activation: RAT, LIVER, S-9, AROCLOR 1254, Method: STANDARD PLATE) is “inactive; negative”. In addition, the mutagenic call is, setting by setting: under setting [3], “active; positive”; (Test System: AMES SALMONELLA TYPHIMURIUM, Strain/Indicator: TA102, Metabolic Activation: RAT, LIVER, S-9, AROCLOR 1254, Method: STANDARD PLATE) “inactive; negative”.
Turning to `C=CC=O`, the mutagenic call (End Point: IN VITRO CHROMOSOMAL ABERRATIONS, Test System: CHINESE HAMSTER OVARY CELLS, Metabolic Activation: NONE) is “inactive; negative”; the mutagenic call (End Point: IN VITRO CHROMOSOMAL ABERRATIONS, Test System: CHINESE HAMSTER OVARY CELLS, Metabolic Activation: RAT, LIVER, S-9, AROCLOR 1254) is “inactive; negative”; the mutagenic call under setting [1] was “active; positive”; the mutagenic call (Test System: AMES SALMONELLA TYPHIMURIUM, Strain/Indicator: TA100, Metabolic Activation: GLUTATHIONE, Method: PREINCUBATION) was “active; positive”; the mutagenic call under setting [2] was “active; positive”; the mutagenic call (Test System: AMES SALMONELLA TYPHIMURIUM, Strain/Indicator: TA100, Metabolic Activation: RAT, LIVER, S-9, AROCLOR 1254, Method: PREINCUBATION) was “active; positive”. Besides, the mutagenic call is, setting by setting: under setting [3], “inactive; negative”; (Test System: AMES SALMONELLA TYPHIMURIUM, Strain/Indicator: TA104, Metabolic Activation: GLUTATHIONE, Method: PREINCUBATION) “active; positive”; (Test System: AMES SALMONELLA TYPHIMURIUM, Strain/Indicator: TA104, Metabolic Activation: NONE, Method: PREINCUBATION) “active; positive”; (Test System: AMES SALMONELLA TYPHIMURIUM, Strain/Indicator: TA1535, Metabolic Activation: NONE, Method: PREINCUBATION) “inactive; negative”; (Test System: AMES SALMONELLA TYPHIMURIUM, Strain/Indicator: TA1535, Metabolic Activation: RAT, LIVER, S-9, AROCLOR 1254, Method: PREINCUBATION) “inactive; negative”; (Test System: AMES SALMONELLA TYPHIMURIUM, Strain/Indicator: TA1537, Metabolic Activation: NONE, Method: PREINCUBATION) “inactive; negative”. For the same compound, the mutagenic call by setting is: (Test System: AMES SALMONELLA TYPHIMURIUM, Strain/Indicator: TA1537, Metabolic Activation: RAT, LIVER, S-9, AROCLOR 1254, Method: PREINCUBATION) “inactive; negative”; (Test System: AMES SALMONELLA TYPHIMURIUM, Strain/Indicator: TA1538, Metabolic Activation: NONE, Method: PREINCUBATION) “inactive; negative”; (Test System: AMES SALMONELLA TYPHIMURIUM, Strain/Indicator: TA1538, Metabolic Activation: RAT, LIVER, S-9, AROCLOR 1254, Method: PREINCUBATION) “inactive; negative”; (Test System: AMES SALMONELLA TYPHIMURIUM, Strain/Indicator: TA2638, Metabolic Activation: NONE, Method: STANDARD PLATE) “active; positive”; (Test System: CHINESE HAMSTER OVARY, Strain/Indicator: AS52/6-THIOGUANINE, Metabolic Activation: NONE, Method: STANDARD PLATE) “inactive; negative”; (Test System: CHINESE HAMSTER OVARY, Strain/Indicator: CHO-K1-BH4 (HGPRT)/6-THIOGUANINE, Metabolic Activation: NONE) “inactive; negative”. The mutagenic call is “inactive; negative” (Test System: CHINESE HAMSTER OVARY, Strain/Indicator: CHO-K1-BH4 (HGPRT)/6-THIOGUANINE, Metabolic Activation: RAT, LIVER, S-9, AROCLOR 1254); “active; positive” (Test System: CHINESE HAMSTER V-79, Strain/Indicator: V-79/6-THIOGUANINE, Metabolic Activation: NONE); “inactive; negative” (Test System: E. COLI, Strain/Indicator: WP2 (PKM101), Metabolic Activation: NONE, Method: STANDARD PLATE); “inactive; negative” (Test System: E. COLI, Strain/Indicator: WP2 UVRA (PKM101), Metabolic Activation: NONE, Method: STANDARD PLATE); “inactive; negative” (Test System: E. COLI, Strain/Indicator: WP2 UVRA, Metabolic Activation: NONE, Method: PREINCUBATION).
